Data published in PMC13534789, “Molecular Glue Degraders Enhance CAPRIN1‐Dependent Lysosomal Degradation of APP and Reduce Amyloid β in Alzheimer's Disease” (Advanced Science, 2026).
Where two headings read alike, the source gives them in different places.

What was measured:
Aβ42 [1] = test: Aβ42 ELISA of conditioned media, iPSC-derived neurons; format: cell-based, human; conditions: for IC50: Homo sapiens, Neuron
Source text: The human iPSC SAD2.3 (UCSD234i‐SAD2‐3) and HVRDi002A were purchased from Wicell, UKBi011A from the European Bank for induced pluripotent stem cells, Sigma, AG25367, AG25370, AG27606, AG27608, AG27609, AG28049, AG28262, and AG27602 from Coriell. All iPSCs were maintained and expanded on Matrigel (Growth factor reduced Matrigel matrix, Corning) in mTeSR1 complete medium (mTeSR1 medium + 5X supplement, Stem Cell Technologies). For iPSC‐Ns transgene delivery, each iPSC line was transduced with lentiviral particles for pLVX‐UbC‐rtTA‐Ngn2:2A:Ascl1 […]), followed by selection in the presence of puromycin ([…], Gibco). To initiate conversion, iPSCs were differentiated into neurons using the established Ascl1/Mash1 (33) and Neurogenin 2 (Ngn2) (34) protocols.
(§1) iPSC‐Ns or HEK‐APP695WT were treated with drugs, and secreted Aβ42 peptides inculture soup were quantified using the Human Amyloid β1‐42 human ELISA kit (Thermo Fisher) according to the manufacturer's protocol. Mouse brain extraction was performed as previously described, with minor modifications. Mouse brain tissues were homogenized at a 1:10 weight‐to‐volume ratio in Tris‐buffered saline (TBS; 50 mM Tris, pH 7.4, 150 mM NaCl) supplemented with 2 mM EDTA and protease inhibitors. TBS‐homogenized brains were centrifuged for 1 h at 16 000 g. To extract total Aβ, including insoluble fractions, formic acid was added to a final concentration of 70%, and the samples were thoroughly mixed by pipetting. Homogenates were centrifuged at 100 000 g for 1 h at 4°C, and the resulting supernatants were collected. Prior to quantification, formic acid‐containing samples were neutralized with 1 M Tris base (pH 11). Aβ40 and Aβ42 levels were measured using human‐specific ELISA kits (Invitrogen) and normalized to total protein concentrations determined by the BCA assay (Thermo Scientific). For Aβ quantification in 3D organoids, 3D organoids’ processing and ELISA analysis were performed with minor modifications from previously described protocols. Briefly, cerebral organoids were lysed in RIPA buffer supplemented with protease and phosphatase inhibitor cocktails (Sigma), followed by sonication and incubation on ice for 60 min. Lysates were centrifuged at 13 000 rpm for 1 h at 4°C, and the supernatants were collected as the RIPA‐soluble fraction. The remaining pellets were resuspended in 70% formic acid, sonicated, and subsequently neutralized with Tris buffer to obtain the formic acid‐solubilized fraction. Aβ42 levels in both fractions were measured using human‐specific ELISA kits (Thermo Fisher) according to the manufacturer's instructions. Formic acid extracts were appropriately neutralized prior to ELISA. Aβ levels were normalized to total protein concentration determined by BCA assay.

Aβ42 [2] = test: Aβ42 ELISA of conditioned media, HEK-APP695WT cells; format: cell-based, human; conditions: 72 h
Procedure: as §1, with “Homogenates were centrifuged at 100 000 g for 1 h at 4°C, and the resulting supernatants were collected.” left out, “Briefly, cerebral organoids were lysed in RIPA buffer supplemented with protease and phosphatase inhibitor cocktails (Sigma), followed by sonication and incubation on ice for 60 min. Lysates were centrifuged at 13 000 rpm for 1 h at 4°C, and the supernatants were collected as the RIPA‐soluble fraction. The remaining pellets were resuspended in 70% formic acid, sonicated, and subsequently neutralized with Tris buffer to obtain the formic acid‐solubilized fraction.” left out, “Formic acid extracts were appropriately neutralized prior to ELISA.” left out

rhCAPRIN1 and rhAPP = test: ThermoFluor assay with recombinant proteins; format: binding, human; conditions: proteins 5 µM
Procedure: For the Thermofluor assay, Huynh's protocol was used with minor modifications. In brief, all proteins were used at a final concentration of 5 µM for this assay, and GloMelt Thermal Shift Protein Stability Kit (Biotium) was used at a final concentration of 0.5X. All experiments were carried out with QuantStudio 6 Flex (Applied Biosystems). SYBR was used as a reporter, and ROX was used as a passive reference according to the manufacturer's directions. Melting curve data were exported, followed by analysis with Boltzmann's sigmoidal curve in GraphPad Prism.

[3] = target: T1, APP695–CAPRIN1 interaction (Homo sapiens, UniProt P05067+Q14444); test: SPR, APP695 onto immobilized CAPRIN1 with 0152; format: binding; conditions: equimolar 0152 vs no compound
T1 construct: 10xHis‐MBP‐APP695 (full‐length) alone was loaded; 10xHis (N); MBP (followed by a 3C site) (N); 10xHis (followed by a 3C site) (N); made in house; host or cells: Tni (Hi5) insect cells, baculovirus
T1 sequence (P05067 18-695 isoform P05067-4 limits assumed): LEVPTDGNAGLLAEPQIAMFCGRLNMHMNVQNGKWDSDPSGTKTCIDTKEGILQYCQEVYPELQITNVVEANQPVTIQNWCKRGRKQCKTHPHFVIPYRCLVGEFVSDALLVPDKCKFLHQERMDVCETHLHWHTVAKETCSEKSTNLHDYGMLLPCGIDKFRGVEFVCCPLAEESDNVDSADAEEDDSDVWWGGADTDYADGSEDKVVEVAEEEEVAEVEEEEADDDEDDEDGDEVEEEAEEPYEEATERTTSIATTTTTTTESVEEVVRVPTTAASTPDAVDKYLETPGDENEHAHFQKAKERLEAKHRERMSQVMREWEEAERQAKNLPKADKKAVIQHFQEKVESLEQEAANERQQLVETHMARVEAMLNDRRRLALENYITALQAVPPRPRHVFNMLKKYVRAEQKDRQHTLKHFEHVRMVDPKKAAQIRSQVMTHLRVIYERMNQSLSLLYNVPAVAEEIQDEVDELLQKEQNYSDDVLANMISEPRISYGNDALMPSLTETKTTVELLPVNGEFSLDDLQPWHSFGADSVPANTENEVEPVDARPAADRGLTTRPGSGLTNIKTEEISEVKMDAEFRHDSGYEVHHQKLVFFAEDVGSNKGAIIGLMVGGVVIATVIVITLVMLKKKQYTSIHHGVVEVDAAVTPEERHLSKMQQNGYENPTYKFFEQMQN
T1 sequence (Q14444 whole entry): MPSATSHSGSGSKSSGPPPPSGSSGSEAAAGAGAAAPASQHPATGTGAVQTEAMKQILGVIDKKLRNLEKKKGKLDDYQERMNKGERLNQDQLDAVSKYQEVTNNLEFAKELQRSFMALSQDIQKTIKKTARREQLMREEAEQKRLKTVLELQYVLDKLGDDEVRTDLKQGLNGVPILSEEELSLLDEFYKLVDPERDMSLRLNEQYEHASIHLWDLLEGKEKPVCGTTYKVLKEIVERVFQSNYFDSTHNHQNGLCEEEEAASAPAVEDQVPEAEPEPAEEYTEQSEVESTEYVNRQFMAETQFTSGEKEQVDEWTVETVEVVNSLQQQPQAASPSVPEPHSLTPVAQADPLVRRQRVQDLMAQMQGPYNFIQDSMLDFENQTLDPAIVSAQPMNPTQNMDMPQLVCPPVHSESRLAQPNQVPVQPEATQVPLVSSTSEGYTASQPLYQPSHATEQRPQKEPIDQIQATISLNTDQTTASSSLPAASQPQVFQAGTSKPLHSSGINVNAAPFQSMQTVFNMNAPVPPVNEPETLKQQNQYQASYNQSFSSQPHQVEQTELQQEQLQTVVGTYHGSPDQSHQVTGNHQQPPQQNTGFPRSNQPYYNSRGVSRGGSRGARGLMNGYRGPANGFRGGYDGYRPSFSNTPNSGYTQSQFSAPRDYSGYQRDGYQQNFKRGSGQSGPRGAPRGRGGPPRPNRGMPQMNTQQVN
Procedure: SPR experiments were conducted to investigate the interaction between APP695 and CAPRIN1 proteins using a Biacore T200 instrument (Cytiva). Both proteins were expressed in Tni (Hi5) insect cells and purified to homogeneity via tandem affinity and ion‐exchange. Protein purity and integrity were confirmed by SDS‐PAGE and size‐exclusion chromatography prior to analysis. All experiments were performed in a running buffer consisting of 50 mM HEPES at […], 100 mM KCl, 10% glycerol, and 0.01% (v/v) Tween‐20 supplemented with 0.1% (w/v) Sarkosyl (pH 7.4). APP695 was serially diluted in running buffer to final concentrations of 15, 5, 1, and 0.3 µM. Chip Preparation: A CM5 sensor chip (Cytiva) was activated using a 1:1 (v/v) mixture of 0.1 M N‐hydroxysuccinimide (NHS) and 0.1 M N‐ethyl‐N′‐(3‐dimethylaminopropyl) carbodiimide (EDC) to generate reactive ester groups. CAPRIN1 was diluted to 50 µg/mL in 10 mM Hepes‐KOH buffer (pH 6.0) and immobilized on the chip surface via standard amine coupling to achieve immobilization. Unreacted sites were blocked with 1 M ethanolamine‐HCl (pH 8.5). A reference flow cell was prepared similarly but without protein immobilization to control for non‐specific binding and bulk refractive index changes. Binding assay: Binding interactions were measured at 25°C with a flow rate of 30 µL/min. APP695 solutions were injected over the CAPRIN1‐immobilized and reference flow cells for 45 s (association phase), followed by a 240 s dissociation phase with running buffer alone. Internal control injections for one concentration of APP695 were performed to ensure reproducibility for every round of the experiment. […] APP (1–300) was also tested for binding to CAPRIN1 under identical conditions. To assess potential non‐specific interactions, 0043 and 0152 were tested for binding to APP‐695 captured on a CM5 chip using a steady‐state model. Data analysis: Sensograms were processed using Biacore T200 Evaluation Software. […]

CAPRIN1 and APP = target: T2, CAPRIN1 and APP (Homo sapiens, UniProt P05067+Q14444); test: Streptavidin pull-down with biotinylated 0152 in AG27606-N lysates; format: binding
T2 construct: endogenous in cells; host or cells: AG27606-Ns, sAD2.3-Ns (iPSC-derived neurons) and their lysates

[4] = 120 h, AG27606 neurons, 5-day treatment, ELISA, normalized to DMSO, read-out: IC50, Aβ42 dose–response

SMILES | Aβ42 secretion across iPSC-Ns from sAD, fAD and non-AD donors (Aβ42 [1]; 10 µM, 72 h) | IC50 (Aβ42 [1]; [4]) | IC50 (Aβ42 [1]; 120 h, sAD2.3 neurons, 5 days treatment, ELISA, read-out: IC50, relative Aβ42 levels in conditioned media) | IC50 (Aβ42 [1]; SAD2.3-Ns and AG27606-Ns, read-out: IC50 values, Aβ42 secretion) | Aβ42 levels in culture media (Aβ42 [1]; sAD2.3 neurons, 10 µM, 72 h) | Aβ42 in conditioned media (Aβ42 [2]; 10 µM) | Extracellular Aβ42 (ELISA) (Aβ42 [2]; increasing concentrations) | Thermal shift of recombinant CAPRIN1 and APP (rhCAPRIN1 and rhAPP) | Decrease of dissociation rate constant (Koff) of APP695–CAPRIN1 [3] | Increase of association rate constant (Kon) of APP695–CAPRIN1 [3] | Reduction of equilibrium dissociation constant (KD) of APP695–CAPRIN1 [3] | Competition of the 0152-biotin pull-down by excess free compound (CAPRIN1 and APP)
N#Cc1cccc(NC(=O)Nc2nc3ccc(C(=O)N4CCOCC4)cc3s2)c1 [compound 0043] | effectively lowered Aβ42 secretion | 2100 nM | 1800 nM | 1800 to 2100 nM | reduced Aβ42 levels | most potent in reducing Aβ42 | reduced intracellular APP and extracellular Aβ42 levels in a dose‐dependent manner | thermal shifts for both proteins | – | – | – | –
COc1cccc(NC(=O)Nc2nc3ccc(C(=O)N4CCOCC4)cc3s2)c1 [compound 0152] | consistently reduced both APP and Aβ42 levels | 900 nM | – | – | – | – | – | – | 10 fold | 3.5 fold | 36 fold | competitively inhibited
